From patent US20260139005A1 (priority 2022, published 2026)
Converted amounts (≈) assume the structure as drawn. Where two headings read alike, the source gives them in different places. Where a SMILES comes first, the peptide text is derived from it.

Tested on: Fusarium graminearum

Compound	MIC (μM) Fusarium graminearum (48 h)	MIC (μM) Fusarium graminearum
CC[C@H](C)[C@H](NC(=O)[C@H](CS)NC(=O)[C@H](CCCCN)NC(=O)[C@@H]1CCCN1C(=O)[C@@H](NC(=O)[C@H](CCCCN)NC(=O)[C@@H]1CCCN1C(=O)[C@H](CCCCN)NC(=O)[C@H](CCCNC(=N)N)NC(=O)[C@H](CS)NC(=O)[C@H](C)NC(=O)[C@H](Cc1ccccc1)NC(=O)[C@H](CCCCN)NC(=O)[C@H](CCCCN)NC(=O)[C@H](CS)NC(=O)[C@H](CC(=O)O)NC(=O)[C@H](CCCCN)NC(=O)[C@H](CC(=O)O)NC(=O)[C@H](CO)NC(=O)[C@H](CCC(N)=O)NC(=O)[C@H](CS)NC(=O)[C@@H]1CCCN1C(=O)[C@H](CCCCN)NC(=O)[C@@H](N)[C@@H](C)O)C(C)C)C(=O)N[C@@H](CC(N)=O)C(=O)NCC(=O)N[C@@H](Cc1ccccc1)C(=O)N[C@@H](CS)C(=O)N[C@@H](CCCCN)C(=O)N[C@@H](CS)C(=O)N[C@H](C(=O)N[C@@H](CCCNC(=N)N)C(=O)O)C(C)C [NCR13, reference compound] (H-TKPCQSDKDCKKFACRKPKVPKCINGFCKCVR-OH; N-terminus and C-terminus assumed)	6 µM (≈ 22 µg/mL)	–
CC[C@H](C)[C@H](NC(=O)[C@H](CS)NC(=O)[C@H](CCCCN)NC(=O)[C@@H]1CCCN1C(=O)[C@@H](NC(=O)[C@H](CCCCN)NC(=O)[C@@H]1CCCN1C(=O)[C@H](CCCCN)NC(=O)[C@H](CCCNC(=N)N)NC(=O)[C@H](CS)NC(=O)[C@H](C)NC(=O)[C@H](Cc1ccccc1)NC(=O)[C@H](CCCCN)NC(=O)[C@H](CCCCN)NC(=O)[C@H](CS)NC(=O)[C@H](C)NC(=O)[C@H](C)NC(=O)[C@H](C)NC(=O)[C@H](C)NC(=O)[C@H](C)NC(=O)[C@H](CS)NC(=O)[C@@H]1CCCN1C(=O)[C@H](CCCCN)NC(=O)[C@@H](N)[C@@H](C)O)C(C)C)C(=O)N[C@@H](CC(N)=O)C(=O)NCC(=O)N[C@@H](Cc1ccccc1)C(=O)N[C@@H](CS)C(=O)N[C@@H](CCCCN)C(=O)N[C@@H](CS)C(=O)N[C@H](C(=O)N[C@@H](CCCNC(=N)N)C(=O)O)C(C)C [NCR13_AlaV1] (H-TKPCAAAAACKKFACRKPKVPKCINGFCKCVR-OH; N-terminus and C-terminus assumed)	6 µM (≈ 20.7 µg/mL)	–
CC[C@H](C)[C@H](NC(=O)[C@H](CS)NC(=O)[C@H](C)NC(=O)[C@H](C)NC(=O)[C@H](C)NC(=O)[C@H](CCCCN)NC(=O)[C@@H]1CCCN1C(=O)[C@H](CCCCN)NC(=O)[C@H](CCCNC(=N)N)NC(=O)[C@H](CS)NC(=O)[C@H](C)NC(=O)[C@H](Cc1ccccc1)NC(=O)[C@H](CCCCN)NC(=O)[C@H](CCCCN)NC(=O)[C@H](CS)NC(=O)[C@H](CC(=O)O)NC(=O)[C@H](CCCCN)NC(=O)[C@H](CC(=O)O)NC(=O)[C@H](CO)NC(=O)[C@H](CCC(N)=O)NC(=O)[C@H](CS)NC(=O)[C@@H]1CCCN1C(=O)[C@H](CCCCN)NC(=O)[C@@H](N)[C@@H](C)O)C(=O)N[C@@H](CC(N)=O)C(=O)NCC(=O)N[C@@H](Cc1ccccc1)C(=O)N[C@@H](CS)C(=O)N[C@@H](CCCCN)C(=O)N[C@@H](CS)C(=O)N[C@H](C(=O)N[C@@H](CCCNC(=N)N)C(=O)O)C(C)C [NCR13_AlaV4] (H-TKPCQSDKDCKKFACRKPKAAACINGFCKCVR-OH; N-terminus and C-terminus assumed)	12 µM (≈ 42.6 µg/mL)	–
CC(C)[C@H](NC(=O)[C@H](CS)NC(=O)[C@H](CCCCN)NC(=O)[C@H](CS)NC(=O)[C@H](C)NC(=O)[C@H](C)NC(=O)[C@H](C)NC(=O)[C@H](C)NC(=O)[C@H](CS)NC(=O)[C@H](CCCCN)NC(=O)[C@@H]1CCCN1C(=O)[C@@H](NC(=O)[C@H](CCCCN)NC(=O)[C@@H]1CCCN1C(=O)[C@H](CCCCN)NC(=O)[C@H](CCCNC(=N)N)NC(=O)[C@H](CS)NC(=O)[C@H](C)NC(=O)[C@H](Cc1ccccc1)NC(=O)[C@H](CCCCN)NC(=O)[C@H](CCCCN)NC(=O)[C@H](CS)NC(=O)[C@H](CC(=O)O)NC(=O)[C@H](CCCCN)NC(=O)[C@H](CC(=O)O)NC(=O)[C@H](CO)NC(=O)[C@H](CCC(N)=O)NC(=O)[C@H](CS)NC(=O)[C@@H]1CCCN1C(=O)[C@H](CCCCN)NC(=O)[C@@H](N)[C@@H](C)O)C(C)C)C(=O)N[C@@H](CCCNC(=N)N)C(=O)O [NCR13_AlaV5] (H-TKPCQSDKDCKKFACRKPKVPKCAAAACKCVR-OH; N-terminus and C-terminus assumed)	6 µM (≈ 21.1 µg/mL)	–
TKPCQSDKDCAAAACRKPKVPKCINGFCKCVR [NCR13_AlaV2]	–	Inactive
TKPCQSDKDCKKFACAAAAVPKCINGFCKCVR [NCR13_AlaV3]	–	Inactive
